Literature values as cited in EP1921109A2, “Grafted cyclodextrin” (Cellresin Technologies, LLC, priority 2004, dated 2005).

Assays:
[1] = aqueous solutions

Flavor Threshold ppb in Water [ppb] | Odor Threshold ppb in Water [ppb] | SMILES | Concentrations of TCA detected in untrained panels [1] | Concentrations of TCA detected by trained panels ([1]; as low as)
1.07 | 0.53 | CCCCCCCCCC=O [Decanal] | – | –
0.13 | 0.13 | CCCC(=O)OCC [Ethyl butyrate] | – | –
40.0 | – | CC(C)=CCC/C(C)=C/C=O [Geranial] | – | –
3.66 | 9.18 | CCCCCC=O [Hexanal] | – | –
3.8 | 5.3 | C=CC(C)(O)CCC=C(C)C (centres unmarked) [Linalool] | – | –
41.4 | 85 | CC(C)=CCC/C(C)=C\C=O [Neral] | – | –
0.52 | 1.41 | CCCCCCCC=O [Octanal] | – | –
– | – | COc1c(Cl)cc(Cl)cc1Cl [TCA, 2,4,6-trichloroanisole] | 20 - 30 ppt | 5 - 10 ppt
1014 | 9.5 | CC1=CCC2CC1C2(C)C (stereo not drawn) [α-Pinene] | – | –
300 | 280 | CC1=CCC(C(C)(C)O)CC1 (stereo not drawn) [α-Terpineol] | – | –
42 | 36 | C=CC(=C)CCC=C(C)C [β-Myrcene] | – | –

SMILES | Flavor Threshold ppb in Water [ppb] | Odor Threshold ppb in Water [ppb] | Concentrations of TCA detected in untrained panels [1] | Concentrations of TCA detected by trained panels ([1]; as low as)
C=C(C)[C@H]1CC=C(C)CC1 [Limonene] | 210 | 60 | – | –
